In patent publication EP1063290A1, “NOVEL DICARBONYLREDUCTASE AND GENE ENCODING THE SAME” (TAISHO PHARMACEUTICAL CO., LTD, priority 1998, dated 1999):
Read-outs that look alike come from different tables or passages of the source.

Assays:
protein DCR1 = protein DCR1 (Mus musculus, UniProt Q91X52); experiment: Dicarbonyl reductase activity assay: substrate specificity and rate constants (NAD(P)H oxidation at 340 nm); settings: for substrate ranking (smallest Km values, higher catalyst efficiency Vmax/Km): mouse enzyme, Table 2, result in words
Method: (§1) The enzyme activity assay method is not particularly restricted, and it may be based on the activity assay method for mouse carbonyl reductase (CR) (Eur. J. Biochem. 22, 381-387(1995)). The enzyme used here was an expressed recombinant enzyme. • (a) Substrate specificity: In order to determine the substrate specificity, there may be used a hydrocarbon system including various ketone, aldehyde and ester groups, or an aromatic compound.
• (1) This was assayed under the following conditions. The reaction mixture (total: 2.0 ml) comprised an 80 mM potassium phosphate solution (pH 7.0 or 6.0), 0.1 mM NADPH or NADH and a carbonyl substrate or enzyme (50 µl) (10.1 µg or 3.7 µg of glomerin B). The oxidation rate for NAD(P)H was measured at 340 nm.

[1] = tested on: dicarbonyl reductase of the invention; experiment: Substrate reactivity features summarised from Tables 1, 2 and 3; format: biochemical; settings: summary in words of Tables 1, 2 and 3
protein hDCR1 = protein hDCR1 (Homo sapiens, UniProt Q7Z4W1); experiment: Dicarbonyl reductase activity assay: substrate specificity (NAD(P)H oxidation at 340 nm); settings: against a reference of 100 for diacetyl
Method: as §1
The reaction mixture (total: 2.0 ml) comprised an 80 mM potassium phosphate solution (pH 7.0 or 6.0), 0.1 mM NADPH or NADH and a carbonyl substrate or enzyme (50 µl) (10.1 µg or 3.7 µg of hDCR1).
The oxidation rate for NAD(P)H was measured at 340 nm.
One unit of enzyme activity was defined as that which catalyzed oxidation of 1 µmol of NAD(P)H in one minute at 25°C.

mouse DCR1 = target: T1, mouse DCR1 (Mus musculus, UniProt Q91X52); experiment: Inhibition of the enzyme reaction; format: biochemical; settings: for inhibition at 100 µM: compound concentration 0.1 mM
T1 construct: made in house; host or cells: E. coli K12
Excerpt: (§2) Two enzymes were used here, mouse DCR1 and hamster liver diacetyl reductase (Hamster DR).

[2] = target: T2, hamster liver diacetyl reductase (Hamster DR) (Mesocricetus auratus, UniProt Q91XV4); experiment: Inhibition of the enzyme reaction; format: biochemical; settings: for inhibition at 1000 µM / inhibition at 100 µM: read-out: Inhibition (%) Hamster DR; for inhibition at 100 µM: compound concentration 0.1 mM
T2 construct: from tissue; host or cells: hamster liver
Excerpt: as §2

[3] = target: T3, dicarbonyl reductase of the invention (Mus musculus, UniProt Q91X52); experiment: Effects of metal ions and inhibitors on residual enzyme activity; format: biochemical; settings: after treating the enzyme with metals and inhibitors
T3 construct: made in house; host or cells: E. coli K12
Method: However, since one of their substrates, NADPH, is degraded at below pH 5, activity assay is not possible in that range when NADPH is used and the peak cannot be determined. The examples were therefore carried out at near pH 7, although the optimum pH is not limited to near 7. • (7) pH stability: For example, DCR1 and hDCR1 are incubated for 3 hours at 25°C in buffer solutions with different pH values, and the residual activity is then measured and compared and recorded as relative activity with respect to the value at pH 8.0 with no incubation. • (8) Effects of metal ions and inhibitors: After treating the enzyme with different metals and inhibitors, the residual activity was evaluated.

[4] = substrate concentration 1,000 μM
[5] = substrate concentration 1,000 μM, against a reference of 100 for diacetyl
[6] = compound concentration 0.001 mM

T2 sequence (Q91XV4 whole entry): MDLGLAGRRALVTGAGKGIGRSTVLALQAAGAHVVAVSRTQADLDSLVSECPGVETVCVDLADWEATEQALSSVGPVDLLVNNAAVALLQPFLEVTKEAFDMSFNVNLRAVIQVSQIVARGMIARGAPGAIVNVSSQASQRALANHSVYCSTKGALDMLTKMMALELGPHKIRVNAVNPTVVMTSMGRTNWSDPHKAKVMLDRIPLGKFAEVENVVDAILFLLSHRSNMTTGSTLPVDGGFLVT
T1 sequence (Q91X52 whole entry): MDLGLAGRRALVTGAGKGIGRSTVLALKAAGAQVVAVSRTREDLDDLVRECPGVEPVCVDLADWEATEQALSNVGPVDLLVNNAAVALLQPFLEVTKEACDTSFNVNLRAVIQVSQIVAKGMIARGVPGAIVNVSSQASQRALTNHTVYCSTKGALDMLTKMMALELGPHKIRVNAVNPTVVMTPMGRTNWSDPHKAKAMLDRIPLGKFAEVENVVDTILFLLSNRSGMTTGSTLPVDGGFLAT
protein DCR1, sequence (Q91X52 whole entry): as above
protein hDCR1, sequence (Q7Z4W1 whole entry): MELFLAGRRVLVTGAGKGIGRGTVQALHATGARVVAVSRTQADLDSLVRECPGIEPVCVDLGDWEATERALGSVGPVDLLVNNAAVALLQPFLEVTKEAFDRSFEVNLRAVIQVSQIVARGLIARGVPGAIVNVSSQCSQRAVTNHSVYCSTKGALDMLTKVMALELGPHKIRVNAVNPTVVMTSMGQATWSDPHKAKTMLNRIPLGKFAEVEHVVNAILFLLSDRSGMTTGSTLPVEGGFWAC
T3 sequence (Q91X52 whole entry): as the sequence (Q91X52 whole entry) above

CCC(=O)C(C)=O [2,3-Pentanedione]
RA (%) relative activity (protein DCR1): 163% | reactivity (as substrate) [1]: strong reactivity | RA (%) relative activity (protein hDCR1; [4]): 167%

O=C1Nc2ccccc2C1=O [Isatin]
RA (%) relative activity (protein DCR1; substrate concentration 400 μM, against a reference of 100 for diacetyl): 106.7% | reactivity (as substrate) [1]: strong reactivity | RA (%) relative activity (protein hDCR1; substrate concentration 500 μM): 252%

CCCCC(=O)C(C)=O [2,3-Heptanedione]
RA (%) relative activity (protein DCR1; [5]): 134% | reactivity (as substrate) [1]: strong reactivity | RA (%) relative activity (protein hDCR1; [4]): 174%

NC(=O)c1ccccc1 [Benzamide]
inhibition at 1000 µM (mouse DCR1; compound concentration 1 mM, read-out: Inhibition (%) CDR1): 18% | inhibition at 1000 µM ([2]; compound concentration 1 mM): 43%

CC(=O)C(=O)c1ccccc1 [1-Phenyl-1,2-propanedione]
substrate ranking (smallest Km values, higher catalyst efficiency Vmax/Km) (protein DCR1): best substrates | RA (%) relative activity (protein DCR1; [5]): 148% | reactivity (as substrate) [1]: strong reactivity | RA (%) relative activity (protein hDCR1; [4]): 65%

CCCC(=O)C(C)=O [2,3-Hexanedione]
RA (%) relative activity (protein DCR1; [5]): 108% | reactivity (as substrate) [1]: strong reactivity | RA (%) relative activity (protein hDCR1; [4]): 168%

O=C(O)c1ccncc1 [Isonicotinic acid]
inhibition at 100 µM (mouse DCR1; read-out: Inhibition (%) CDR1): 0% | inhibition at 100 µM [2]: 4%

Cibacron blue dye
Inhibition (%) CDR1 (mouse DCR1; [6]): 21% | Inhibition (%) Hamster DR [2, 6]: 18%

O=C1C(=O)c2cccc3cccc1c23 [Acenaphthenequinone]
RA (%) relative activity (protein DCR1; substrate concentration 25 μM, against a reference of 100 for diacetyl): 14.1% | reactivity (as substrate) [1]: strong reactivity | RA (%) relative activity (protein hDCR1; substrate concentration 25 μM): 181%

O=C(CBr)C(=O)CBr [1,4-dibromo-2,3-butanedione]
reactivity (as substrate) [1]: strong reactivity | RA (%) relative activity (protein hDCR1; [4]): 133%

NC(=O)c1ccc(O)cc1 [4-Hydroxybenzamide]
inhibition at 1000 µM (mouse DCR1; read-out: Inhibition (%) CDR1): 44% | inhibition at 1000 µM [2]: 19%

[Cl-].[Cl-].[Mg+2] [MgCl2]
effect on the enzyme (residual activity) [3]: virtually no effect

c1cn[nH]c1 [Pyrazole]
inhibition at 10000 µM (mouse DCR1; compound concentration 10 mM, read-out: Inhibition (%) CDR1): 29% | inhibition at 10000 µM ([2]; compound concentration 10 mM): 5%

O=c1c(O)c(-c2ccc(O)c(O)c2)oc2cc(O)cc(O)c12 [Quercitin]
inhibition at 100 µM (mouse DCR1; read-out: Inhibition (%) CDR1): 50% | inhibition at 100 µM [2]: 33%

C=C(CC)C(=O)c1ccc(OCC(=O)O)c(Cl)c1Cl [Ethacrynic acid]
inhibition at 100 µM (mouse DCR1; read-out: Inhibition (%) CDR1): 0% | inhibition at 100 µM [2]: 3%

CCC(=O)C(=O)CC [3,4-Hexanedione]
substrate ranking (smallest Km values, higher catalyst efficiency Vmax/Km) (protein DCR1): best substrates | RA (%) relative activity (protein DCR1; [5]): 232% | reactivity (as substrate) [1]: strong reactivity | RA (%) relative activity (protein hDCR1; [4]): 170%

[Ca+2].[Cl-].[Cl-] [CaCl2]
effect on the enzyme (residual activity) [3]: virtually no effect
